Patent US20200102264A1, “MARMELIN ANALOGS AND METHODS OF USE IN CANCER TREATMENT” (THE UNIVERSITY OF KANSAS, priority 2014, published 2020)
Entries after “also recorded” stand apart in the source; their conditions may differ.

Experiments:
Assay type in all cases: cell-based
SW480 cells [1] = assay: cell cycle analysis, SW480; details: SW480, Table 3
Experimental: The analogs were tested to determine the ability induce death of colon cancer cells.

[2] = tested on: MiaPaCa-2 pancreatic cancer cells; assay: hexoseaminidase cell proliferation assay, MiaPaCa-2
Experimental: (§1) Using hexoseaminidase assay, we determined the effect of the compounds on cell proliferation. […] The IC50 value at 48 hours is below 10 μM in all the cancer cell lines.
(§2) Using hexoseaminidase assay, we determined the effect of the compounds on cell proliferation. […] The MRL16 IC50 value at 48 hours is below 0.3 μM in Colon cancer cell lines. […] Overall, the analogs can be used as chemotherapeutic agents against colon and pancreatic cancer.

HCT116 cells [3] = assay: cell cycle analysis, HCT116; details: HCT116, Table 3
SW480 cells [4] = assay: colony formation, SW480
[5] = tested on: HCT116 colon cancer cells; assay: hexoseaminidase cell proliferation assay, HCT116
Excerpt: (§3) Using hexoseaminidase assay, we determined the effect of the compounds on cell proliferation. […]
(§4) Using hexoseaminidase assay, we determined the effect of the compounds on cell proliferation. […] […] […] Overall, the analogs can be used as chemotherapeutic agents against colon and pancreatic cancer.

cancer stem cells = assay: colonosphere formation
Experimental: It was also determined the analogs inhibit colonosphere formation from cancer stem cells. […] The columns are 0, 10, 25, and 50 micromolar concentrations of the compounds labeled by rows.
The effect of the compounds on colonosphere formation was determined. […] Overall, the analogs have shown they can be used as chemotherapeutic agents against colon, pancreatic and bladder cancer.

HCT116 cells [6] = assay: colony formation, HCT116
SW480 colon cancer cells = assay: hexoseaminidase cell proliferation assay, SW480
Excerpt: as §3, §4

[7] = tested on: colon, pancreatic and bladder cancer cells; assay: hexoseaminidase cell proliferation assay, summaries over cell lines; details: dose and time dependent
Experimental: Water solubility studies were performed with the CD/analog complexes. […] The observed IC50 value of THBCD at 48 h is below 10 μM in all the colon, pancreatic and bladder cancer cells.
as §1, §2

[8] = tested on: PanC-1 pancreatic cancer cells; assay: hexoseaminidase cell proliferation assay, PanC-1
Experimental: as §1, §2

KU7 bladder cancer cells = assay: hexoseaminidase cell proliferation assay, KU7
Experimental: as §1

PanC-1 cells = assay: colony formation, PanC-1
[9] = tested on: 253JBV bladder cancer cells; assay: hexoseaminidase cell proliferation assay, 253JBV
Experimental: as §1

MiaPaCa-2 cells = assay: colony formation, MiaPaCa-2

Row | IC50 ([2]; MiaPaCa-2, 24 h) [µM] | IC50 ([2]; MiaPaCa-2, 48 h) [µM] | IC50 ([2]; MiaPaCa-2, 72 h) [µM] | IC50 ([5]; HCT116, 24 h) [µM] | IC50 ([5]; HCT116, 48 h) [µM] | IC50 (SW480 colon cancer cells; SW480, 24 h) [µM] | IC50 (SW480 colon cancer cells; SW480, 48 h) [µM] | IC50 (SW480 colon cancer cells; SW480, 72 h) [µM] | IC50 ([8]; PanC-1, 24 h) [µM] | IC50 ([8]; PanC-1, 48 h) [µM] | IC50 ([8]; PanC-1, 72 h) [µM] | IC50 ([5]; HCT116, 72 h) [µM] | SMILES | colony formation (SW480 cells [4]) | colonosphere formation (cancer stem cells) | colony formation (HCT116 cells [6]) | inhibition of cell proliferation (in words) [7] | colony formation (PanC-1 cells) | colony formation (MiaPaCa-2 cells) | other results
1 | > 50 | 25 | 10 | > 50 | > 50 | > 50 | > 50 | 15 | > 50 | 15 | 8 | – | O=C(N/N=C/c1ccc(O)c(O)c1)c1cc2ccccc2cc1O [MRL DHB] | significantly inhibited colony formation | significantly inhibited colonosphere formation | significantly inhibited colony formation | potent inhibitor of proliferation of pancreatic cancer cells; also recorded: inhibit proliferation | – | – | G0/G1 (%) (SW480 cells [1]): 60.7%; G2M (%) (SW480 cells [1]): 18.4%; S (%) (SW480 cells [1]): 14.1%; SubG0 Dead Cells (%) (SW480 cells [1]): 6.1%; IC50 ([2]; MiaPaCa-2, 72 h, listed as DHB): 25 µM; G0/G1 (%) (HCT116 cells [3]): 40.7%; G2M (%) (HCT116 cells [3]): 10.4%; S (%) (HCT116 cells [3]): 13.0%; SubG0 Dead Cells (%) (HCT116 cells [3]): 34.2%; IC50 ([8]; PanC-1, 48 h, listed as DHB): 10 µM
2 | 40 | 8 | 6 | 10 | 6 | 25 | 8 | 8 | 45 | 10 | 7 | 6 | O=C(N/N=C/c1ccc2ccccc2c1O)c1cc2ccccc2cc1O [NAL] | inhibit colony formation | potent inhibitors of colonosphere formation | inhibit colony formation | potent inhibitor | inhibit colony formation | inhibit colony formation | IC50 (KU7 bladder cancer cells; KU7, 24 h): 10 µM; IC50 (KU7 bladder cancer cells; KU7, 48 h): 10 µM; IC50 (KU7 bladder cancer cells; KU7, 72 h): 6 µM; IC50 ([9]; 24 h): > 50 µM; IC50 ([9]; 48 h): 10 µM; IC50 ([9]; 72 h): 7 µM
3 | > 50 | > 50 | 8 | 25 | 8 | > 50 | > 50 | 8 | > 50 | 10 | 8 | 6 | O=C(N/N=C/c1ccccc1O)c1cc2ccccc2cc1O [SAL] | inhibit colony formation | potent inhibitors of colonosphere formation | inhibit colony formation | – | inhibit colony formation | inhibit colony formation | –
